Source: US5789431A, “Naphthoquinone antitumor compound and method” (The University of North Carolina at Chapel Hill, priority 1996, dated 1998)

Assays:
HOP-92 = experiment: in vitro non-small cell lung cancer cell growth inhibition (NCI screen)
HL-60(TB) = experiment: in vitro leukemia cell growth inhibition (NCI screen)
MOLT-4 = experiment: as above
HCT-15 = experiment: in vitro colon cancer cell growth inhibition (NCI screen)
UACC-62 = experiment: in vitro melanoma cell growth inhibition (NCI screen)
M19-MEL = experiment: as above
SK-MEL-5 = experiment: as above
K-562 = experiment: in vitro leukemia cell growth inhibition (NCI screen)
LOX1MVI = experiment: in vitro melanoma cell growth inhibition (NCI screen)
HCT-116 = experiment: in vitro colon cancer cell growth inhibition (NCI screen)
CCRF-CEM = experiment: in vitro leukemia cell growth inhibition (NCI screen)
DLD-1 = experiment: in vitro colon cancer cell growth inhibition (NCI screen)
SR = experiment: in vitro leukemia cell growth inhibition (NCI screen)
U 251 = experiment: in vitro CNS cancer cell growth inhibition (NCI screen)
NCI-H460 = experiment: in vitro non-small cell lung cancer cell growth inhibition (NCI screen)
COLO-205 = experiment: in vitro colon cancer cell growth inhibition (NCI screen)
SF-539 = experiment: in vitro CNS cancer cell growth inhibition (NCI screen)
SF-268 = experiment: as above
LXFL 529 = experiment: in vitro non-small cell lung cancer cell growth inhibition (NCI screen)
ACHN = experiment: in vitro renal cancer cell growth inhibition (NCI screen)
T-47D = experiment: in vitro breast cancer cell growth inhibition (NCI screen)
NCI-H522 = experiment: in vitro non-small cell lung cancer cell growth inhibition (NCI screen)
HT 29 = experiment: in vitro colon cancer cell growth inhibition (NCI screen)
NCI-H23 = experiment: in vitro non-small cell lung cancer cell growth inhibition (NCI screen)
RPMI-8226 = experiment: in vitro leukemia cell growth inhibition (NCI screen)
SW 620 = experiment: in vitro colon cancer cell growth inhibition (NCI screen)
OVCAR-3 = experiment: in vitro ovarian cancer cell growth inhibition (NCI screen)
MALME-3M = experiment: in vitro melanoma cell growth inhibition (NCI screen)
UACC-257 = experiment: as above
OVCAR-4 = experiment: in vitro ovarian cancer cell growth inhibition (NCI screen); details: OVACR-4
SK-MEL-2 = experiment: in vitro melanoma cell growth inhibition (NCI screen)
human tumor cell lines = assay type: cell-based; details: cancer cell line panel
IGROV1 = experiment: in vitro ovarian cancer cell growth inhibition (NCI screen)
M14 = experiment: in vitro melanoma cell growth inhibition (NCI screen)
PC-3 = experiment: in vitro prostate cancer cell growth inhibition (NCI screen)
RXF-393 = experiment: in vitro renal cancer cell growth inhibition (NCI screen)
MCF7/ADR-RES = experiment: in vitro breast cancer cell growth inhibition (NCI screen)

Structure (SMILES)	cytotoxicity log GI50 (HOP-92) [M]	cytotoxicity log GI50 (HL-60(TB)) [M]	cytotoxicity log GI50 (HCT-15) [M]	cytotoxicity log GI50 (UACC-62) [M]	cytotoxicity log GI50 (M19-MEL) [M]	cytotoxicity log GI50 (SK-MEL-5) [M]	cytotoxicity log GI50 (K-562) [M]	cytotoxicity log GI50 (LOX1MVI) [M]	cytotoxicity log GI50 (HCT-116) [M]	cytotoxicity log GI50 (DLD-1) [M]	cytotoxicity log GI50 (NCI-H460) [M]	cytotoxicity log GI50 (NCI-H522) [M]	cytotoxicity log GI50 (NCI-H23) [M]	cytotoxicity log GI50 (OVCAR-3) [M]	cytotoxicity log GI50 (MALME-3M) [M]	further results
CCC(CC)NC1=C(NC(C)=O)C(=O)c2ccccc2C1=O [Compound 34]	-6.47															
Cc1nc2c(n1CCC(C)C)C(=O)c1ccccc1C2=O [Compound 11]		-5.22	-4.93	-4.91	-4.84	-4.84	-5.09	-4.83	-5.17	-4.95	-5.22					cytotoxicity log GI50 (MOLT-4): -5.08 M; cytotoxicity log GI50 (CCRF-CEM): -4.87 M; cytotoxicity log GI50 (SR): -5.33 M; cytotoxicity log GI50 (U 251): -4.90 M; cytotoxicity log GI50 (COLO-205): -4.84 M; cytotoxicity log GI50 (SF-539): -4.92 M; cytotoxicity log GI50 (SF-268): -4.84 M; cytotoxicity log GI50 (LXFL 529): -4.88 M
CC(=O)NC1=C(NCCC(C)C)C(=O)c2ccccc2C1=O [Compound 35]																cytotoxicity log GI50 (ACHN): -7.52 M
O=C(O)CCc1nc2c(n1-c1ccccc1)C(=O)c1ccccc1C2=O [Compound 60]	-7.65								-4.30			-4.42				cytotoxicity log GI50 (T-47D): -4.19 M
CCCC(C)n1c(C)nc2c1C(=O)c1ccccc1C2=O (stereo not drawn) [Compound 9]	-4.78		-5.22	-5.17	-4.90	-4.88	-5.07	-5.06	-5.26	-5.07	-5.34		-4.81			cytotoxicity log GI50 (HT 29): -4.76 M; cytotoxicity log GI50 (U 251): -4.91 M; cytotoxicity log GI50 (SF-539): -4.89 M; cytotoxicity log GI50 (LXFL 529): -4.90 M
CCC(C)NC1=C(NC(C)=O)C(=O)c2ccccc2C1=O (stereo not drawn) [Compound 30]		-4.76	-4.34				-4.36	-4.81		-4.56				-4.39		cytotoxicity log GI50 (RPMI-8226): -4.87 M; cytotoxicity log GI50 (SW 620): -4.65 M; cytotoxicity log GI50 (CCRF-CEM): -4.66 M
CCCC(C)NC1=C(NC(C)=O)C(=O)c2ccccc2C1=O (stereo not drawn) [Compound 33]	-4.32				-4.20	-4.13						-4.19			-4.44	
Cc1nc2c(n1CCO)C(=O)c1ccccc1C2=O [Compound 16]		-4.70		-4.78	-5.59	-4.95	-4.59	-4.63	-4.72			-4.84	-4.82	-4.61	-4.93	cytotoxicity log GI50 (UACC-257): -4.78 M; cytotoxicity log GI50 (OVCAR-4): -4.58 M; cytotoxicity log GI50 (ACHN): -4.60 M; cytotoxicity log GI50 (SK-MEL-2): -4.74 M; cytotoxicity against tumor cells (in words) (human tumor cell lines): comparable to those of compounds 6-14; cytotoxicity log GI50 (SR): -4.58 M; cytotoxicity log GI50 (IGROV1): -4.69 M; cytotoxicity log GI50 (COLO-205): -4.72 M; cytotoxicity log GI50 (M14): -4.67 M
CCNC1=C(NC(=O)CC)C(=O)c2ccccc2C1=O [Compound 45]			-4.19			-4.27			-4.44			-4.34		-4.49	-4.64	cytotoxicity log GI50 (UACC-257): -4.52 M; cytotoxicity log GI50 (SW 620): -4.22 M; cytotoxicity log GI50 (PC-3): -4.37 M; cytotoxicity log GI50 (CCRF-CEM): -4.25 M; cytotoxicity log GI50 (RXF-393): -4.32 M; cytotoxicity log GI50 (HT 29): -4.46 M; cytotoxicity log GI50 (COLO-205): -4.33 M; cytotoxicity log GI50 (M14): -4.50 M; cytotoxicity log GI50 (MCF7/ADR-RES): -4.23 M
COc1ccc(-n2c(CCC(=O)O)nc3c2C(=O)c2ccccc2C3=O)cc1 [Compound 62]								-4.55				-4.46				cytotoxicity log GI50 (T-47D): -4.48 M
O=C1c2ccccc2C(=O)c2[nH]c(Cc3ccc(F)cc3)nc21 [Compound 4c]			-5.19							-5.40				-5.27	-4.84	cytotoxicity log GI50 (OVCAR-4): -4.83 M; cytotoxicity log GI50 (ACHN): -4.85 M; cytotoxicity log GI50 (SW 620): -4.84 M; cytotoxicity log GI50 (RXF-393): -5.16 M; cytotoxicity log GI50 (SK-MEL-2): -4.86 M; cytotoxicity log GI50 (IGROV1): -4.90 M; cytotoxicity log GI50 (M14): -4.82 M
Cc1nc2c(n1CC(C)(C)C)C(=O)c1ccccc1C2=O [Compound 14]	-4.78	-4.44				-4.37	-4.25	-4.25			-4.23			-4.18		
CCC(C)n1c(C)nc2c1C(=O)c1ccccc1C2=O (stereo not drawn) [Compound 6]	-4.66	-4.84	-4.57	-4.55	-4.74	-4.57	-4.47	-4.64	-4.50	-4.57	-4.71		-4.48	-4.49	-4.49	cytotoxicity log GI50 (MOLT-4): -4.55 M; cytotoxicity log GI50 (UACC-257): -4.55 M; cytotoxicity log GI50 (CCRF-CEM): -4.43 M; cytotoxicity log GI50 (RXF-393): -4.57 M; cytotoxicity log GI50 (SF-539): -4.49 M; cytotoxicity log GI50 (SF-268): -4.51 M; cytotoxicity log GI50 (LXFL 529): -4.48 M
CCC(C)CNC1=C(NC(C)=O)C(=O)c2ccccc2C1=O (stereo not drawn) [Compound 37]					-4.68	-4.50							-4.17	-4.25	-4.45	
CCC(C)Cn1c(C)nc2c1C(=O)c1ccccc1C2=O (stereo not drawn) [Compound 13]	-4.69	-5.30	-4.76	-5.00	-4.74	-4.82	-5.27	-4.71			-4.83		-4.68			cytotoxicity log GI50 (MOLT-4): -5.54 M; cytotoxicity log GI50 (SR): -5.55 M; cytotoxicity log GI50 (COLO-205): -4.70 M; cytotoxicity log GI50 (SF-539): -4.75 M; cytotoxicity log GI50 (LXFL 529): -4.77 M
